Laboratory results taken from patent US12492173B2, “Herbicidal substituted N-tetrazolyl aryl carboxamides” (Bayer Aktiengesellschaft, priority 2019, dated 2025).

Columns and labels:
Format in all cases: in vivo
Matricaria inodora = assay: Pre-emergence herbicidal action, MATIN; settings: dosage 320 g/ha; for herbicidal activity MATIN: scored visually after 3 weeks vs untreated controls (100% = plants have died)
In short: (§1)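 Pre-emergence, sandy loam soil; WP/EC formulation applied to covering soil surface, 600–800 l/ha water + 0.2% wetter; greenhouse, 3 wk; visual % damage vs untreated (0–100%).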

Polygonum convolvulus [1] = assay: Pre-emergence herbicidal action, POLCO; settings: dosage 320 g/ha; for herbicidal activity POLCO: scored visually after 3 weeks vs untreated controls (100% = plants have died)
In short: as §1

Amaranthus retroflexus = assay: Post-emergence herbicidal action, AMARE; design: key: % herbicidal action vs untreated; 100 = plants died, 0 = like control
In short: (§2)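 Percent herbicidal effect was rated visually about 3 weeks after treatment, relative to untreated plants (0% = like control, 100% = dead). Compounds, formulated as WP or EC, went on as aqueous spray (600–800 l/ha, 0.2% wetting agent) to one-leaf-stage plants 2–3 weeks post-sowing in sandy loam.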

Pharbitis purpurea = assay: Post-emergence herbicidal action, PHBPU
In short: as §2

Polygonum convolvulus [2] = assay: Post-emergence herbicidal action, POLCO
In short: as §2

Stellaria media = assay: Post-emergence herbicidal action, STEME; design: key: % herbicidal action vs untreated; 100 = plants died, 0 = like control
In short: as §2

Viola tricolor = assay: Post-emergence herbicidal action, VIOTR; design: key: % herbicidal action vs untreated; 100 = plants died, 0 = like control
In short: as §2

Row | Structure (SMILES) | herbicidal activity MATIN (Matricaria inodora) | herbicidal activity POLCO (Polygonum convolvulus [1]) | herbicidal action AMARE (Amaranthus retroflexus; post-emergence, dosage 80 g/ha) | herbicidal action PHBPU (Pharbitis purpurea; post-emergence, dosage 80 g/ha) | herbicidal action POLCO (Polygonum convolvulus [2]; post-emergence, dosage 80 g/ha) | herbicidal action STEME (Stellaria media; post-emergence, dosage 80 g/ha) | herbicidal action VIOTR (Viola tricolor; post-emergence, dosage 80 g/ha) | herbicidal action AMARE (Amaranthus retroflexus; Dosage 80 g/ha) | herbicidal action PHBPU (Pharbitis purpurea; Dosage 80 g/ha) | herbicidal action POLCO (Polygonum convolvulus [2]; Dosage 80 g/ha) | herbicidal action STEME (Stellaria media; Dosage 80 g/ha) | herbicidal action VIOTR (Viola tricolor; Dosage 80 g/ha) | herbicidal action MATIN (Matricaria inodora) | herbicidal action POLCO (Polygonum convolvulus [1])
1 | CCSCc1c(C(F)F)ccc(C(=O)Nc2nnnn2CC)c1Cl [Example 2-323] | 100% | 100% | 80% | 90% | 100% | 100% | 100% | – | – | – | – | – | – | –
2 | CCn1nnnc1NC(=O)c1ccc(C(F)F)c(C[S+]([O-])CC)c1Cl (centres unmarked) [Example 2-324] | 100% | 100% | 100% | 100% | 100% | 100% | 100% | – | – | – | – | – | – | –
3 | CCn1nnnc1NC(=O)c1ccc(C(F)F)c(CS(=O)(=O)CC)c1Cl [Example 2-325] | 100% | 100% | – | – | – | – | – | 90 | 90 | 90 | 100 | 100 | – | –
4 | CCn1nnnc1NC(=O)c1ccc(C(F)(F)F)c(C[S+]([O-])CC)c1Br (centres unmarked) [Example 2-384] | 100% | 90% | 90% | 90% | 80% | 100% | 100% | – | – | – | – | – | – | –
5 | CCn1nnnc1NC(=O)c1ccc(C(F)(F)F)c(CS(=O)(=O)CC)c1Br [Example 2-385] | 100% | 100% | 90% | 80% | 90% | 100% | 100% | – | – | – | – | – | – | –
6 | CCCn1nnnc1NC(=O)c1ccc(C(F)(F)F)c(C[S+](C)[O-])c1OC (centres unmarked) [Example 3-135] | – | – | – | – | – | – | – | 100 | 90 | 100 | 100 | 100 | 100% | 90%
7 | CCCn1nnnc1NC(=O)c1ccc(C(F)(F)F)c(C[S+](C)[O-])c1SC (centres unmarked) [Example 3-162] | 100% | 100% | 100% | 90% | 100% | 100% | 100% | – | – | – | – | – | – | –
8 | CCCn1nnnc1NC(=O)c1ccc(C(F)(F)F)c(CS(C)(=O)=O)c1SC [Example 3-163] | 100% | 80% | – | – | – | – | – | 90 | 90 | 90 | 100 | 100 | – | –
9 | CCCn1nnnc1NC(=O)c1ccc(C(F)F)c(CSC)c1SC [Example 3-170] | 100% | 90% | – | – | – | – | – | 100 | 90 | 90 | 100 | 100 | – | –
10 | CCCn1nnnc1NC(=O)c1ccc(C(F)F)c(C[S+](C)[O-])c1SC (centres unmarked) [Example 3-171] | 100% | 90% | – | – | – | – | – | 100 | 90 | 90 | 100 | 100 | – | –
11 | CCCn1nnnc1NC(=O)c1ccc(C(F)F)c(CS(C)(=O)=O)c1SC [Example 3-172] | 100% | 100% | – | – | – | – | – | 100 | 100 | 80 | 100 | 90 | – | –
12 | CCCn1nnnc1NC(=O)c1ccc(C(F)(F)F)c(CS(C)(=O)=O)c1Cl [Example 3-298] | 100% | 80% | – | – | – | – | – | 100 | 100 | 90 | 100 | 100 | – | –
13 | CCCn1nnnc1NC(=O)c1ccc(C(F)F)c(CSCC)c1Cl [Example 3-323] | 100% | 100% | – | – | – | – | – | 90 | 90 | 80 | 100 | 90 | – | –
14 | CCCn1nnnc1NC(=O)c1ccc(C(F)(F)F)c(C[S+]([O-])CC)c1Br (centres unmarked) [Example 3-384] | 100% | 80% | – | – | – | – | – | 90 | 80 | 90 | 100 | 100 | – | –
